Laboratory results published in ChEMBL document CHEMBL1201862, “PubChem BioAssay data set” (2004).
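Grown in 96-well plates, cells were treated for 48 hours with each compound at five concentrations. Insufficient inhibition: endpoint recorded as highest concentration tested. GI50: concentration for 50% inhibition of growth.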 Activity calls are given as the source filed them. No stated cut-off is given here; in the data, active = GI50 up to about 1.1 µM and inactive = higher.

Experiments:
Experiment in all cases: NCI anticancer screen, dose series, 48 h
MDA-MB-231 = test system: MDA-MB-231
SW-620 = test system: SW-620
OVCAR-3 = test system: OVCAR-3
Hs-578T = test system: Hs-578T
SK-MEL-28 = test system: SK-MEL-28
COLO 205 = test system: COLO 205
M14 = test system: M14
HL-60 = test system: HL-60
NCI-H460 = test system: NCI-H460
HCT-15 = test system: HCT-15
SK-MEL-5 = test system: SK-MEL-5
U-251 = test system: U-251
SK-MEL-2 = test system: SK-MEL-2
SNB-19 = test system: SNB-19
M19-MEL = test system: M19-MEL
DU-145 = test system: DU-145
PC-3 = test system: PC-3
A549 = test system: A549
SNB-75 = test system: SNB-75
LXFL 529 = test system: LXFL 529
IGROV-1 = test system: IGROV-1
DMS-273 = test system: DMS-273
OVCAR-4 = test system: OVCAR-4
BT-549 = test system: BT-549
SF-268 = test system: SF-268
DLD-1 = test system: DLD-1
LOX IMVI = test system: LOX IMVI
T47D = test system: T47D
RXF 631 = test system: RXF 631
OVCAR-8 = test system: OVCAR-8
UACC-257 = test system: UACC-257
HCT-116 = test system: HCT-116
TK-10 = test system: TK-10
HCC 2998 = test system: HCC 2998
CAKI-1 = test system: CAKI-1
A498 = test system: A498
SN12C = test system: SN12C
MCF7 = test system: MCF7
UO-31 = test system: UO-31
MDA-MB-435 = test system: MDA-MB-435
NCI-H23 = test system: NCI-H23
MDA-N = test system: MDA-N
SF-539 = test system: SF-539
K562 = test system: K562
ACHN = test system: ACHN
HOP-92 = test system: HOP-92
SR = test system: SR
XF498 = test system: XF498
MOLT-4 = test system: MOLT-4
NCI-H226 = test system: NCI-H226
EKVX = test system: EKVX
HOP-62 = test system: HOP-62
786-0 = test system: 786-0
KM-20L2 = test system: KM-20L2
HT-29 = test system: HT-29
CCRF-CEM = test system: CCRF-CEM
NCI-H522 = test system: NCI-H522
KM12 = test system: KM12
DMS-114 = test system: DMS-114
OVCAR-5 = test system: OVCAR-5
Malme-3M = test system: Malme-3M
UACC-62 = test system: UACC-62
SK-OV-3 = test system: SK-OV-3
NCI/ADR-RES = test system: NCI/ADR-RES
RPMI-8226 = test system: RPMI-8226
SF-295 = test system: SF-295
HOP-18 = test system: HOP-18
RXF 393 = test system: RXF 393
SNB-78 = test system: SNB-78

Measured: GI50

COC(=O)c1ccccc1OCc1cc(=O)oc2ccc(C)cc12
> 100 µM: HCT-15
inactive: MDA-MB-231 84.9 µM | SW-620 > 65.8 µM | OVCAR-3 29.4 µM | Hs-578T 27.3 µM | SK-MEL-28 > 100 µM | COLO 205 > 100 µM | M14 > 87.7 µM | HL-60 > 100 µM | NCI-H460 > 100 µM | SK-MEL-5 > 100 µM | U-251 14.4 µM | SK-MEL-2 > 42.6 µM | SNB-19 14.7 µM | M19-MEL > 100 µM | DU-145 > 100 µM | PC-3 > 100 µM | A549 82.2 µM | SNB-75 16.2 µM | LXFL 529 85.7 µM | IGROV-1 64.7 µM | DMS-273 71.3 µM | OVCAR-4 20 µM | BT-549 18.1 µM | SF-268 29.1 µM | DLD-1 67.1 µM | LOX IMVI > 69.2 µM | T47D 4.7 µM | RXF 631 > 100 µM | OVCAR-8 39.3 µM | UACC-257 > 87.3 µM | HCT-116 43.1 µM | TK-10 58.7 µM | HCC 2998 > 100 µM | CAKI-1 52.5 µM | A498 > 100 µM | SN12C > 100 µM | MCF7 21.4 µM | UO-31 > 100 µM | MDA-MB-435 > 100 µM | NCI-H23 > 100 µM | MDA-N > 100 µM | SF-539 20.2 µM | K562 > 100 µM | ACHN 63.2 µM | HOP-92 24 µM | SR > 100 µM | XF498 31.8 µM | MOLT-4 > 100 µM | NCI-H226 90.4 µM | EKVX > 100 µM | HOP-62 20 µM | 786-0 39.1 µM | KM-20L2 82.2 µM | HT-29 49.5 µM | CCRF-CEM > 100 µM | NCI-H522 14.8 µM | KM12 > 100 µM | DMS-114 89.3 µM | OVCAR-5 > 100 µM | Malme-3M > 100 µM | UACC-62 > 39.2 µM | SK-OV-3 63.8 µM | NCI/ADR-RES 64.7 µM | RPMI-8226 > 63.4 µM | SF-295 28.2 µM

Cn1nc(-c2ccccc2)c(C(=O)/C=C/c2ccccc2)c(N2CCCCC2)c1=O
inactive: SW-620 34 µM | SK-MEL-28 14.5 µM | COLO 205 9.98 µM | M14 47.6 µM | HL-60 2.72 µM | NCI-H460 7.67 µM | SK-MEL-5 17.5 µM | U-251 > 100 µM | SNB-19 > 100 µM | A549 9.86 µM | LXFL 529 > 100 µM | IGROV-1 > 100 µM | DMS-273 37.7 µM | SF-268 23.7 µM | DLD-1 9.35 µM | LOX IMVI 11.7 µM | RXF 631 > 100 µM | OVCAR-8 42 µM | HCT-116 4.91 µM | TK-10 > 100 µM | CAKI-1 22.2 µM | HOP-18 40.8 µM | SN12C > 100 µM | RXF 393 12.8 µM | UO-31 17.5 µM | NCI-H23 14 µM | SF-539 41.5 µM | K562 4.7 µM | ACHN 46.1 µM | HOP-92 7.31 µM | MOLT-4 2.36 µM | EKVX > 100 µM | HOP-62 3.91 µM | 786-0 12.5 µM | KM-20L2 10.4 µM | HT-29 11.7 µM | CCRF-CEM 3.72 µM | NCI-H522 7.05 µM | DMS-114 > 100 µM | UACC-62 15.9 µM | SK-OV-3 > 100 µM | RPMI-8226 4.22 µM
17.7 µM: HCT-15

O=c1[nH]c(=O)n([C@@H]2O[C@H](CO)[C@@H](O)[C@H]2O)cc1F [5-FLUOROURIDINE]
0.0367 µM: HCT-15
inactive: MDA-MB-231 1.63 µM | Hs-578T 2.01 µM | SK-MEL-2 2.32 µM | SNB-75 2.25 µM | TK-10 5.74 µM | XF498 1.92 µM | EKVX 37.2 µM | DMS-114 10.4 µM | SK-OV-3 5.66 µM
active: SW-620 0.0222 µM | OVCAR-3 0.223 µM | SK-MEL-28 0.805 µM | COLO 205 0.0787 µM | M14 0.222 µM | HL-60 0.0867 µM | NCI-H460 0.0159 µM | SK-MEL-5 0.344 µM | U-251 0.0462 µM | SNB-19 0.0579 µM | M19-MEL 0.481 µM | DU-145 0.151 µM | PC-3 0.164 µM | A549 0.0179 µM | LXFL 529 0.15 µM | IGROV-1 0.0803 µM | DMS-273 0.312 µM | OVCAR-4 0.521 µM | BT-549 0.459 µM | SF-268 0.0716 µM | DLD-1 0.0861 µM | LOX IMVI 0.0556 µM | T47D 0.114 µM | RXF 631 1.05 µM | OVCAR-8 0.056 µM | SNB-78 0.211 µM | HCT-116 0.0167 µM | HCC 2998 0.0311 µM | CAKI-1 0.0483 µM | A498 0.308 µM | SN12C 0.0603 µM | RXF 393 0.221 µM | UO-31 0.0792 µM | MDA-MB-435 0.0333 µM | NCI-H23 0.229 µM | MDA-N 0.025 µM | SF-539 0.0375 µM | K562 0.0212 µM | ACHN 0.0307 µM | SR 0.0473 µM | MOLT-4 0.0861 µM | NCI-H226 0.154 µM | HOP-62 0.171 µM | 786-0 0.0408 µM | KM-20L2 0.594 µM | HT-29 0.0407 µM | CCRF-CEM 0.057 µM | KM12 0.0671 µM | OVCAR-5 0.718 µM | Malme-3M 0.0678 µM | UACC-62 0.169 µM | NCI/ADR-RES 0.0792 µM | RPMI-8226 0.126 µM | SF-295 0.145 µM
